Kd and IC50 data for 2 compounds are collected here from ChEMBL document CHEMBL4190165 (Medchemcomm, 2016).

Experiment [1] is described as follows: Binding affinity to yeast Hsp90 by isothermal titration calorimetric method. Also noted: species or system Saccharomyces cerevisiae. (In general: In ITC the heat of successive injections is recorded.)
Experiment [2] in a line: Inhibition of Saccharomyces cerevisiae PP30 HSP82 expressed in Escherichia coli BL21(DE3)pLysS by PK/LDH coupled spectrophotometric assay.

For the compound `COC1=C2C[C@@H](C)C[C@H](OC)[C@H](O)[C@@H](C)/C=C(\C)[C@H](OC(N)=O)[C@@H](OC)/C=C\C=C(/C)C(=O)NC(=CC1=O)C2=O` [GELDANAMYCIN], the Kd (commonly the constant that tells how readily two partners part at equilibrium) in experiment [1] is 1200 nM. Besides, the IC50 (usually the concentration that inhibits the measured activity by half) in experiment [2] is 1000 to 5000 nM.
For `C[C@@H]1C[C@H]2O[C@@H]2/C=C\C=C\C(=O)Cc2c(Cl)c(O)cc(O)c2C(=O)O1` [RADICICOL], in that order: 19 nM and 20 to 23 nM.
